Data taken from BindingDB's records for doi:10.1021/acs.jmedchem.7b01490 (Astrazeneca, 2018).

Test: Inhibition of CHK1 in human HT29 cells assessed as abrogation of camptothecin-induced G2/M phase arrest

`C[C@@H]1CC[C@H](Nc2ncc(C(N)=O)c3sc(-c4ccccc4)cc23)CN1` and `NC(=O)c1cnc(N[C@H]2CCCNC2)c2cc(-c3ccccc3)sc12` [(S)-2-phenyl-4-(piperidin-3-ylamino)thieno[3,2-c]pyridine-7-carboxamide] are within 1.5-fold of each other in EC50: 30 nM for the first, 26 nM for the second.

First: C[C@@H]1CC[C@H](Nc2ncc(C(N)=O)c3sc(-c4ccccc4)cc23)[C@H](C)N1
Second: C[C@@H]1NCCC[C@@H]1Nc1ncc(C(N)=O)c2sc(-c3ccccc3)cc12
The EC50 of the first is 5-fold lower: 10 nM for the first, 50 nM for the second.

First: NC(=O)c1cnc(N[C@H]2CCCN[C@@H]2CCO)c2cc(-c3ccccc3)sc12
Second: C[C@H]1NCCC[C@@H]1Nc1ncc(C(N)=O)c2sc(-c3ccccc3)cc12
The EC50 of the first is 410-fold higher: 3300 nM for the first, 8 nM for the second.

Compared with `NC(=O)c1cnc(N(CCO)[C@H]2CCCNC2)c2cc(-c3ccccc3)sc12`, `CCN(c1ncc(C(N)=O)c2sc(-c3ccccc3)cc12)[C@H]1CCCNC1` is 34-fold lower in EC50: 3700 nM for the first, 110 nM for the second. The second is the more potent here.

Going from `CN(c1ncc(C(N)=O)c2sc(-c3ccccc3)cc12)[C@H]1CCCNC1` to `NC(=O)c1cnc(O[C@H]2CCCNC2)c2cc(-c3ccccc3)sc12`, the EC50 falls from 840 nM to 340 nM (2.5-fold). The second is the more potent here.

Going from `NC(=O)c1cnc(N[C@H]2CCCNC2)c2cc(-c3ccccc3)oc12` to `CN1CCC[C@H](Nc2ncc(C(N)=O)c3sc(-c4ccccc4)cc23)C1`, the EC50 rises from 390 nM to 880 nM (2.3-fold).

Going from `NC(=O)c1ccc(N[C@H]2CCCNC2)c2cc(-c3ccc(Cl)cc3)[nH]c12` to `NC(=O)c1ccc(N[C@H]2CCCNC2)c2cc(-c3ccc(F)cc3)[nH]c12`, the EC50 falls from 70 nM to 40 nM (1.8-fold). The second is the more potent here.

Compared with `NC(=O)c1ccc(N[C@H]2CCCNC2)c2cc(-c3cccc(F)c3)[nH]c12`, `NC(=O)c1ccc(N[C@H]2CCCNC2)c2cc(-c3ccccc3)[nH]c12` is 1.8-fold higher in EC50: 30 nM for the first, 53 nM for the second. The first is the more potent here.

First: NC(=O)c1cnc(N[C@H]2CCCNC2)c2cc(-c3cnn(Cc4ccccc4)c3)sc12
Second: Cn1cc(-c2cc3c(N[C@H]4CCCNC4)ncc(C(N)=O)c3s2)cn1
The EC50 of the first is 2.5-fold lower: 60 nM for the first, 150 nM for the second. The first is the more potent here.

Compared with `NC(=O)c1cnc(N[C@H]2CCCNC2)c2cc(-c3cn[nH]c3)sc12`, `NC(=O)c1cnc(N[C@H]2CCCNC2)c2cc(-c3ccsc3)sc12` is 230-fold lower in EC50: 2300 nM for the first, 10 nM for the second.

Going from `NC(=O)c1cnc(N[C@H]2CCCNC2)c2cc(-c3cccs3)sc12` to `NC(=O)c1cnc(N[C@H]2CCCNC2)c2cc(-c3cccc(F)c3)sc12`, the EC50 rises from 12 nM to 24 nM (2-fold). The first is the more potent here.

First: NC(=O)c1cnc(N[C@H]2CCCNC2)c2cc(-n3ccnc3)sc12
Second: NC(=O)c1cnc(N[C@H]2CNCC[C@@H]2O)c2cc(-c3ccccc3)sc12
The EC50 of the first is 24-fold higher: 10000 nM for the first, 410 nM for the second.

`NC(=O)c1cnc(SC2CCCNC2)c2cc(-c3ccccc3)sc12` (stereo not given) gave an EC50 of 210 nM.
